From patent publication US20100197611A1, “ALTERNATIVE AGENT WITH VITAMIN D-LIKE ACTIVITY AND AN IMPROVING AGENT FOR INTESTINAL FUNCTION” (priority 2003, published 2010)

Key:
CaT1 gene = CaT1 gene expression (mRNA, RT-PCR) in Caco-2 cells; assay type: cell-based; details: 72 hours, 1 mmol/L glucose 1-phosphate sodium salt or 10 nmol/L 1α,25-dihydroxyvitamin D, FIG. 3
Excerpt: (§1) As a target cell of 1α,25-dihydroxyvitamin D and a sugar-phosphate ester, Caco-2 cells (from Dainippon Pharmaceutical Co. Ltd.) were employed. Caco-2 cells are known to differentiate to epitherial-like cells of small intestine. The Caco-2 cells were suspended in culture medium (10% fetal calf serum, none essential amino acids for MEM, […]/MEM Earle) and added to an insert of a fibrillar collagen culture plate (from Becton Dickinson Inc.). To the plate also, the culture medium was added, and cultured according to a usual method. The media in the insert and the plate were renewed at a regular interval, and the culture was subjected to a test at 15 days of incubation.

24-hydroxylase gene = 24-hydroxylase gene expression (mRNA, RT-PCR) in Caco-2 cells; assay type: cell-based; details: 72 hours, 1 mmol/L glucose 1-phosphate sodium salt or 10 nmol/L 1α,25-dihydroxyvitamin D, FIG. 2
Excerpt: as §1

calbindin D9K = assay: Intestinal calbindin D9K expression in aged rats (Western blotting); assay type: in vivo; details: aged rats (9 month, male, SD-IGS), 1.9% by weight in feed for 10 days, compared to control group; FIG. 4
Excerpt: On 10 days after the test started, rats were made starved by fasting for all day and night, then the small intestines were taken out, followed by extraction, immediate opening of the intestinal canal and stripping off the epitherial mucous membrane to prepare protein extract samples according to the method described by H. J. Armbrecht et al. (Am. J. Physiol., 236(6), e769-e774, 1979). These samples were separated by SDS-PAGE, followed by transferring on PVDF membrane (IPVH, pore size of 0.45, Millipore) in accordance with a usual procedure and assaying of calbindin D9K by the Western blotting method. Rabbit anti-calbindin D9K antibody (from Research Diagnostic Inc.) as the primary antibody and HRP anti-rabbit IgG (Bio-Rad) as the secondary antibody were used, and detected using ECL Plus kit (Bio-Rad). The detected protein bands were further quantified using Scion Image-analyzing software (from Scion Corp.).

| Molecule | gene expression of CaT1 (mRNA amount divided by housekeeping gene G3PDH) (CaT1 gene) | gene expression of 24-hydroxylase (mRNA amount divided by housekeeping gene G3PDH) (24-hydroxylase gene) | expression of calbindin D9K in small intestine (calbindin D9K) |
| --- | --- | --- | --- |
| 1α,25-dihydroxyvitamin D | significantly enhanced | significantly enhanced |  |
| O=P([O-])([O-])O[C@H]1O[C@H](CO)[C@@H](O)[C@H](O)[C@H]1O.[Na+].[Na+] [glucose 1-phosphate sodium salt] |  |  | significantly enhance |
